A short description of data set [1]: Plasma and liver pharmacokinetics following a single oral dose in monkeys (Example 6). The settings on record: cynomolgus monkey; for AUC(0-t) / Cmax / Tmax: Cynomolgus monkeys, single oral dose (mg/kg per Table 6: 1a 10, A 25, B 10, C 10, D 50); for AUC(0-t) / Cmax: normalized to 1 μmol/kg dose; for AUC(0-t): read-out: Plasma prodrug AUC0-24; for Cmax: read-out: Plasma prodrug Cmax; for Tmax: read-out: Plasma prodrug Tmax. In kind it is in vivo. On the procedure:
[…] Untreated animals were used for the collection of control liver. Plasma samples were collected at 1, 2, 4, 6, 8, 12 and 24 hours for all compounds and additionally at 0.5 hour (Compounds 1a, B and D), 3 and 10 hours (Compound C), and 32 and 48 hours post dose for Compound A. Terminal liver samples were collected from three animals per time point at 6, 12 and 24 hours post dose for all compounds and additionally at 2 hours (Compounds 1a, B and D), 3 hours (Compound C) and 32 and 48 hours post dose for Compound A. Liver specimens were collected from all animals immediately after the incision. Freezing forceps stored in liquid nitrogen were used to freeze the liver before excision.
(§1) Plasma samples were analyzed for the prodrug and 2′-methylguanosine (2′-MeG) or relevant nucleoside by LC-MS/MS. For protein precipitation and extraction, each plasma sample (50 μL) was treated with 500 μL of 0.2% formic acid in acetonitrile and 20 μL of an appropriate internal standard working solution. After vortexing and centrifugation, 500 μL of the sample extracts were transferred to a new plate, dried under N2 at ˜28° C. and reconstituted with 75 μL of 0.2% FA in water. The extracts were chromatographed on an Aquasil C18 column using a gradient system of 0.2% formic acid in water and acetonitrile. The analytes were detected and quantified by tandem mass spectrometry in positive ion mode on an MDS Sciex API5000 or an API4000 equipped with a Turbo Ionspray® interface. The calibration range was 0.500 (LLOQ) to 200 ng/mL in mouse plasma. The corresponding range for molar units is 1.68 to 673 pmol/mL.
(§2) Liver samples were analyzed for the active species 2′-methylguanosine triphosphate (2′-MeGTP) or relevant nucleoside triphosphate by LC-MS/MS. The triphosphate levels were assayed by homogenizing (on ice) a known weight of mouse liver with 4× volume of 0.95 M trichloroacetic acid (TCA). Appropriate internal standard solution was added to the homogenate followed by neutralization with 20% ammonium hydroxide solution and addition of 500 μL 1% formic acid. The tissue samples were extracted by weak anion exchange solid phase extraction (SPE). Post extraction, the eluates were evaporated under nitrogen, followed by reconstitution before injection onto the LC-MS/MS system. The samples were chromatographed on a Luna NH2 column using a gradient system of ammonium acetate (1 mM to 20 mM and pH 8.0 to pH 10.0) in water and acetonitrile (70:30). The analyte was detected and quantified by tandem mass spectrometry in positive ion mode on an API4000 equipped with a Turbo Ionspray® interface. The calibration range was 10 to 10000 pmol/mL in mouse liver homogenate (50 to 50000 pmol/g of mouse liver).

Data set [2] can be described thus: Plasma and liver pharmacokinetics following a single oral dose in mice (Example 6). The data set is classed as in vivo. The settings on record: CD-1 mice, oral 25 mg/kg, normalized to 1 μmol/kg dose; 1a average of N = 3. The method, then:
For each compound, a single oral dose at 25 mg/kg in PEG 200 (dose volume 5 mL/kg) was administered to [CD-1] mice. Untreated animals were used for the collection of control liver. Terminal liver and plasma samples were collected from three animals per time point at 4, 12 and 24 hours post dose and additionally at 1 hour post dose in one occasion of Compound 1 (see Example 5). Liver specimens were collected from all animals immediately after the incision. Freezing forceps stored in liquid nitrogen were used to freeze the liver before excision.
as §1, §2

Where two headings read alike, the source gives them in different places.

As to `COc1nc(N)nc2c1ncn2[C@@H]1O[C@H](COP(=O)(N[C@@H](C)C(=O)OCC(C)(C)C)Oc2cccc3ccccc23)[C@@H](O)[C@@]1(C)O` (stereo partly drawn) [Compound B, L-Alanine, N-(2′-C-methyl-6-O-methyl-P-1-naphthalenyl-5′-guanylyl)-, 2,2-dimethylpropyl ester], in data set [1] (in vivo), the AUC(0-t) came out at 0.2 nM·h, the Cmax worked out at 0.2 nM and the Tmax is 30 min.
`CC(C)OC(=O)[C@H](C)N[P@](=O)(OC[C@H]1O[C@@H](n2ccc(=O)[nH]c2=O)[C@](C)(F)[C@@H]1O)Oc1ccccc1` [Compound D, L-Alanine, N—((P(S),2′R)-2′-deoxy-2′-fluoro-2′-methyl-P-phenyl-5′-uridylyl)-, 1-methylethyl ester]: in data set [1] (in vivo), the AUC(0-t) worked out at 3.5 nM·h, the Cmax turned out to be 1.2 nM and the Tmax came out at 30 min.
Regarding `CCOc1nc(N)nc2c1ncn2[C@@H]1O[C@@H]2COP(=O)(OC(C)C)O[C@H]2[C@@]1(C)F` (stereo partly drawn) [Compound A, 6-ethoxy-9-((4aR,6R,7R,7aR)-7-fluoro-2-isopropoxy-7-methyl-2-oxo-tetrahydro-2,5-furo[3,2-d][1,3,2]dioxaphosphinin-6-yl)-9H-purin-2-yl amine], in data set [1] (plasma), the AUC(0-t) stood at 410 nM·h, the Cmax came to 100 nM and the time to peak (Tmax) came to 120 min.
Consider `CC(C)(CO)C(=O)SCCOP(=O)(NCc1ccccc1)OCC1OC(n2cnc3c(=O)[nH]c(N)nc32)C(C)(O)C1O` (stereo not drawn) [Compound C, 2′-C-methyl-guanosine, 5′-[2-[(3-hydroxy-2,2-dimethyl-1-oxopropyl)thio]ethyl N-(phenylmethyl)phosphoramidate], reference compound], for which the “Plasma prodrug Tmax” value in data set [1] (in vivo, po) came to 360 min. In data set [2], the “Nucleoside triphosphate in Liver AUC0-24” value came to 290 pmol·h/g and the “Nucleoside triphosphate in Liver Cmax” value was determined as 19 pmol/g.
